Laboratory results reported in PubChem BioAssay AID248 (DTP/NCI, 2004).
Several values for one entry are separate records, joined by “and”; a condition that tells them apart may be missing. Equal values may be shown once. Inconclusive results and toxic doses are left out. Cut-off read from the data, not from the text of the source: active = T/C of 150% or more; inactive = T/C below 125%.

Tested on: L1210 leukemia ip in BDF1 mice, survival T/C
Experiment: NCI In Vivo Anticancer Drug Screen. Data for tumor model L1210 Leukemia (intraperitoneal) in B6D2F1 (BDF1) mice
Conditions: endpoint: mean survival time, higher = longer survival
Outline: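 Tumor cells were implanted, animals were treated, and survival was followed. The result divides the treated measurement by the vehicle-control measurement.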

Measured: T/C

O=C(Nc1ccc(C2=NCCN2)cc1)c1ccc(C(=O)Nc2ccc(C3=NCCN3)cc2)cc1
active: dose: 1.25 mg/kg/injection, schedule: Q01DX Z (ip), vehicle: other 287 % of control | dose: 2.5 mg/kg/injection, schedule: Q01DX Z (ip), vehicle: other 158 % of control | dose: 5.0 mg/kg/injection, schedule: Q01DX Z (ip), vehicle: acid diluted with saline 243 % of control | dose: 5.0 mg/kg/injection, schedule: Q01DX Z (ip), vehicle: other 179 % of control | dose: 5.0 mg/kg/injection, schedule: Q#A X Z (ip), vehicle: saline 194 % of control | dose: 10.0 mg/kg/injection, schedule: Q01DX Z (ip), vehicle: acid diluted with saline 205 % of control | dose: 10.0 mg/kg/injection, schedule: Q01DX Z (sc), vehicle: acid diluted with saline 175 % of control | dose: 10.0 mg/kg/injection, schedule: Q#A X Z (ip), vehicle: saline 291 % of control | dose: 15.0 mg/kg/injection, schedule: Q01DX Z (ip), vehicle: carboxymethylcellulose (CMC) 168 % of control and 269 % of control and 197 % of control | dose: 15.6 mg/kg/injection, schedule: Q01DX Z (sc), vehicle: other 181 % of control | dose: 20.0 mg/kg/injection, schedule: Q01DX Z (ip), vehicle: acid diluted with saline 158 % of control | dose: 20.0 mg/kg/injection, schedule: Q01DX Z (ip), vehicle: saline 316 % of control | dose: 20.0 mg/kg/injection, schedule: Q01DX Z (sc), vehicle: acid diluted with saline 165 % of control | dose: 20.0 mg/kg/injection, schedule: Q#A X Z (ip), vehicle: saline 178 % of control | dose: 30.0 mg/kg/injection, schedule: Q01DX Z (ip), vehicle: acid diluted with saline 182 % of control | dose: 30.0 mg/kg/injection, schedule: Q01DX Z (ip), vehicle: carboxymethylcellulose (CMC) 320 % of control | dose: 30.0 mg/kg/injection, schedule: Q03DX Z (ip), vehicle: saline 200 % of control | dose: 31.3 mg/kg/injection, schedule: Q01DX Z (sc), vehicle: other 195 % of control | dose: 35.0 mg/kg/injection, schedule: Q07DX Z (ip), vehicle: saline 160 % of control | dose: 40.0 mg/kg/injection, schedule: Q01DX Z (ip), vehicle: saline 348 % of control | dose: 40.0 mg/kg/injection, schedule: Q#A X Z (ip), vehicle: saline 210 % of control | dose: 60.0 mg/kg/injection, schedule: Q01DX Z (ip), vehicle: acid diluted with saline 153 % of control | dose: 60.0 mg/kg/injection, schedule: Q01DX Z (ip), vehicle: carboxymethylcellulose (CMC) 246 % of control | dose: 60.0 mg/kg/injection, schedule: Q03DX Z (ip), vehicle: saline 304 % of control | dose: 62.5 mg/kg/injection, schedule: Q01DX Z (sc), vehicle: other 158 % of control | dose: 70.0 mg/kg/injection, schedule: Q01DX001 (ip), vehicle: saline 156 % of control and 161 % of control | dose: 70.0 mg/kg/injection, schedule: Q07DX Z (ip), vehicle: saline 205 % of control | dose: 80.0 mg/kg/injection, schedule: Q01DX Z (ip), vehicle: saline 183 % of control | dose: 80.0 mg/kg/injection, schedule: Q#A X Z (ip), vehicle: saline 210 % of control | dose: 120.0 mg/kg/injection, schedule: Q01DX Z (ip), vehicle: acid diluted with saline 176 % of control | dose: 120.0 mg/kg/injection, schedule: Q03DX Z (ip), vehicle: saline 243 % of control and 252 % of control | dose: 125.0 mg/kg/injection, schedule: Q01DX Z (sc), vehicle: other 161 % of control | dose: 140.0 mg/kg/injection, schedule: Q01DX001 (ip), vehicle: saline 223 % of control | dose: 140.0 mg/kg/injection, schedule: Q07DX Z (ip), vehicle: saline 282 % of control | dose: 160.0 mg/kg/injection, schedule: Q01DX Z (ip), vehicle: saline 174 % of control | dose: 160.0 mg/kg/injection, schedule: Q#A X Z (ip), vehicle: saline 176 % of control | dose: 250.0 mg/kg/injection, schedule: Q01DX004 (im), vehicle: saline 204 % of control and 208 % of control | dose: 250.0 mg/kg/injection, schedule: Q01DX Z (sc), vehicle: other 168 % of control | dose: 250.0 mg/kg/injection, schedule: Q01DX Z (sc), vehicle: saline 217 % of control | dose: 280.0 mg/kg/injection, schedule: Q07DX Z (ip), vehicle: saline 250 % of control and 327 % of control | dose: 320.0 mg/kg/injection, schedule: Q01DX Z (ip), vehicle: saline 162 % of control | dose: 480.0 mg/kg/injection, schedule: Q03DX Z (ip), vehicle: saline 194 % of control | dose: 500.0 mg/kg/injection, schedule: Q01DX004 (im), vehicle: saline 262 % of control | dose: 500.0 mg/kg/injection, schedule: Q01DX Z (sc), vehicle: saline 195 % of control | dose: 560.0 mg/kg/injection, schedule: Q01DX001 (ip), vehicle: saline 184 % of control and 210 % of control | dose: 560.0 mg/kg/injection, schedule: Q07DX Z (ip), vehicle: saline 261 % of control | dose: 750.0 mg/kg/injection, schedule: Q01DX Z (sc), vehicle: saline 183 % of control and 290 % of control | dose: 960.0 mg/kg/injection, schedule: Q03DX Z (ip), vehicle: saline 164 % of control | dose: 1000.0 mg/kg/injection, schedule: Q01DX004 (im), vehicle: saline 267 % of control | dose: 1112.0 mg/kg/injection, schedule: Q01DX001 (ip), vehicle: saline 157 % of control | dose: 1500.0 mg/kg/injection, schedule: Q01DX Z (sc), vehicle: saline 215 % of control
115 % of control and 204 % of control: dose: 120.0 mg/kg/injection, schedule: Q01DX Z (ip), vehicle: carboxymethylcellulose (CMC)
112 % of control and 264 % of control: dose: 17.5 mg/kg/injection, schedule: Q01DX001 (ip), vehicle: saline
inactive: dose: 0.62 mg/kg/injection, schedule: Q#A X Z (ip), vehicle: saline 114 % of control | dose: 0.63 mg/kg/injection, schedule: Q01DX Z (sc), vehicle: saline 104 % of control | dose: 1.25 mg/kg/injection, schedule: Q01DX Z (sc), vehicle: saline 101 % of control | dose: 1.87 mg/kg/injection, schedule: Q01DX Z (ip), vehicle: carboxymethylcellulose (CMC) 112 % of control | dose: 1.88 mg/kg/injection, schedule: Q03DX Z (ip), vehicle: saline 103 % of control | dose: 2.5 mg/kg/injection, schedule: Q01DX Z (sc), vehicle: saline 104 % of control | dose: 3.75 mg/kg/injection, schedule: Q01DX Z (ip), vehicle: carboxymethylcellulose (CMC) 121 % of control | dose: 3.75 mg/kg/injection, schedule: Q03DX Z (ip), vehicle: saline 114 % of control | dose: 4.4 mg/kg/injection, schedule: Q01DX001 (ip), vehicle: saline 103 % of control | dose: 4.4 mg/kg/injection, schedule: Q07DX Z (ip), vehicle: saline 103 % of control | dose: 5.0 mg/kg/injection, schedule: Q01DX005 (iv), vehicle: saline 102 % of control | dose: 5.0 mg/kg/injection, schedule: Q01DX Z (sc), vehicle: saline 101 % of control | dose: 7.5 mg/kg/injection, schedule: Q03DX Z (ip), vehicle: saline 115 % of control | dose: 8.8 mg/kg/injection, schedule: Q01DX001 (ip), vehicle: saline 97 % of control and 112 % of control | dose: 8.8 mg/kg/injection, schedule: Q07DX Z (ip), vehicle: saline 105 % of control | dose: 10.0 mg/kg/injection, schedule: Q01DX005 (iv), vehicle: saline 103 % of control | dose: 10.0 mg/kg/injection, schedule: Q01DX Z (iv), vehicle: acid diluted with saline 123 % of control | dose: 20.0 mg/kg/injection, schedule: Q01DX005 (iv), vehicle: saline 115 % of control | dose: 31.3 mg/kg/injection, schedule: Q01DX004 (im), vehicle: olive oil, sesame oil, peanut oil 97 % of control | dose: 31.3 mg/kg/injection, schedule: Q01DX004 (im), vehicle: saline 104 % of control | dose: 31.3 mg/kg/injection, schedule: Q01DX Z (ip), vehicle: other 112 % of control | dose: 62.5 mg/kg/injection, schedule: Q01DX004 (im), vehicle: olive oil, sesame oil, peanut oil 100 % of control | dose: 62.5 mg/kg/injection, schedule: Q01DX Z (ip), vehicle: other 111 % of control | dose: 125.0 mg/kg/injection, schedule: Q01DX004 (im), vehicle: olive oil, sesame oil, peanut oil 100 % of control | dose: 125.0 mg/kg/injection, schedule: Q01DX Z (ip), vehicle: other 97 % of control | dose: 250.0 mg/kg/injection, schedule: Q01DX004 (im), vehicle: olive oil, sesame oil, peanut oil 121 % of control | dose: 640.0 mg/kg/injection, schedule: Q01DX Z (ip), vehicle: saline 124 % of control | dose: 18.8 micrograms/kg/injection, schedule: Q01DX Z (ip), vehicle: saline 96 % of control | dose: 37.5 micrograms/kg/injection, schedule: Q01DX Z (ip), vehicle: saline 96 % of control | dose: 75.0 micrograms/kg/injection, schedule: Q01DX Z (ip), vehicle: saline 100 % of control | dose: 150.0 micrograms/kg/injection, schedule: Q01DX Z (ip), vehicle: saline 94 % of control | dose: 230.0 micrograms/kg/injection, schedule: Q01DX Z (ip), vehicle: carboxymethylcellulose (CMC) 98 % of control | dose: 460.0 micrograms/kg/injection, schedule: Q01DX Z (ip), vehicle: carboxymethylcellulose (CMC) 118 % of control | dose: 930.0 micrograms/kg/injection, schedule: Q01DX Z (ip), vehicle: carboxymethylcellulose (CMC) 113 % of control
